Entries after “also recorded” stand apart in the source; their conditions may differ.
Experiments:
[1] = system: Fox03 mRNA; assay: FoxO3 activation: relative expression of Fox03 mRNA in fibroblasts (TaqMan RT-PCR); assay type: cell-based, human; conditions: fibroblasts (NHF), 10 ppm, 24 hours, control = 1.0
Procedure: (§1) Experiment was conducted using normal human keratinocytes (NHK) and normal human fibroblasts (NHF) to investigate the effect of a methylated catechin. Specifically, 2×10^5 NHFs (normal human fibroblasts) purchased from Lonza (Allendale, N.J., USA) were cultured on a 60-mm dish at 37° C. for 24 hours using DMEM. The medium was discarded and the cells were transferred to a new tissue culture flask. Also, NHEKs (normal human epidermal keratinocytes, corresponding to NHK) purchased from Lonza (Allendale, N.J., USA) were cultured using a keratinocyte growth medium (KGM-GOLD, Lonza, Allendale, N.J., USA). The cells were detached with 0.025% trypsin and transferred to a new tissue culture flask after subculturing.
(§2) Specifically, after treating the keratinocytes (NHK) and the fibroblasts (NHF) with each of retinol, green tea EGCG and green tea EGCG″3Me at 10 ppm, followed by incubation at 37° C. for 24 hours, total RNA was isolated from the cells and the relative expression of Fox03 mRNA was compared.
(§3) The total RNA was isolated using TRIzol™ (Invitrogen, Carlsbad, Calif., USA) according to the manufacturer's protocol. RNA concentration was measured spectrophotometrically and RNA integrity was measured using BioAnalyzer 2100 (Agilent Technologies, Santa Clara, Calif., USA). 4 μg of RNA was reverse transcribed to cDNA using SuperScript®III reverse transcriptase (Invitrogen, Carlsbad, Calif., USA). The cDNA was stored at −70° C. The expression level of the target gene was measured by quantitative real-time TaqMan RT-PCR (7500Fast, Applied Biosystems, Foster City, Calif., USA). The cycle condition was 10 minutes at 95° C., 50 cycles of […] at 95° C. and 1 minute at 60° C.

[2] = system: Klotho mRNA; assay: Klotho activation: relative expression of Klotho mRNA in keratinocytes (TaqMan RT-PCR); assay type: cell-based, human; conditions: keratinocytes (NHK), 24 hours, control = 1.0
Procedure: as §1
as §2, with “of retinol (10 ppm),” for “of retinol,”, “EGCG (1 and 10 ppm)” for “EGCG”, “EGCG″3Me (1 and” for “EGCG″3Me at”, “10 ppm),” for “10 ppm,”, “of Klotho” for “of Fox03”
as §3

[3] = system: XPD mRNA; assay: XPD activation: relative expression of XPD mRNA in fibroblasts (TaqMan RT-PCR); assay type: cell-based, human; conditions: fibroblasts (NHF), 10 ppm, 37° C. 24 hours, control = 1.0
Procedure: as §1
(§4) Specifically, after treating the keratinocytes (NHK) and the fibroblasts (NHF) with each of retinol, green tea EGCG and green tea EGCG″3Me at 10 ppm, followed by incubation at 37° C. for 24 hours, total RNA was isolated from the cells and the relative expression of XPD mRNA was compared.
as §3

[4] = system: Sirt-1 mRNA; assay: Sirt-1 activation: relative expression of Sirt-1 mRNA in fibroblasts (TaqMan RT-PCR); assay type: cell-based, human; conditions: fibroblasts (NHF), 10 ppm, 24 hours, control = 1.0
Procedure: as §1
(§5) Specifically, after treating the keratinocytes (NHK) and the fibroblasts (NHF) with each of retinol, green tea EGCG and green tea EGCG″3Me at 10 ppm, followed by incubation at 37° C. for 24 hours, total RNA was isolated from the cells and the relative expression of Sirt-1 mRNA was compared.
as §3

[5] = system: XPD mRNA; assay: XPD activation: relative expression of XPD mRNA in keratinocytes (TaqMan RT-PCR); assay type: cell-based, human; conditions: keratinocytes (NHK), 10 ppm, 37° C. 24 hours, control = 1.0
Procedure: as §1, §4, §3

[6] = system: ERCC8 mRNA; assay: ERCC8 activation: relative expression of ERCC8 mRNA in fibroblasts (TaqMan RT-PCR); assay type: cell-based, human; conditions: fibroblasts (NHF), 10 ppm, 24 hours, control = 1.0
Procedure: as §1
(§6) Specifically, after treating the keratinocytes (NHK) and the fibroblasts (NHF) with each of retinol, green tea EGCG and green tea EGCG″3Me at 10 ppm, followed by incubation at 37° C. for 24 hours, total RNA was isolated from the cells and the relative expression of ERCC8 mRNA was compared.
as §3

[7] = system: ERCC8 mRNA; assay: ERCC8 activation: relative expression of ERCC8 mRNA in keratinocytes (TaqMan RT-PCR); assay type: cell-based, human; conditions: keratinocytes (NHK), 10 ppm, 24 hours, control = 1.0
Procedure: as §1, §6, §3

[8] = system: Klotho mRNA; assay: Klotho activation: relative expression of Klotho mRNA in fibroblasts (TaqMan RT-PCR); assay type: cell-based, human; conditions: fibroblasts (NHF), 24 hours, control = 1.0
Procedure: as §1
as §2, with “of retinol (10 ppm),” for “of retinol,”, “EGCG (1 and 10 ppm)” for “EGCG”, “EGCG″3Me (1 and” for “EGCG″3Me at”, “10 ppm),” for “10 ppm,”, “of Klotho” for “of Fox03”
as §3

[9] = system: Sirt-1 mRNA; assay: Sirt-1 activation: relative expression of Sirt-1 mRNA in keratinocytes (TaqMan RT-PCR); assay type: cell-based, human; conditions: keratinocytes (NHK), 10 ppm, 24 hours, control = 1.0
Procedure: as §1, §5, §3

[10] = system: Fox03 mRNA; assay: FoxO3 activation: relative expression of Fox03 mRNA in keratinocytes (TaqMan RT-PCR); assay type: cell-based, human; conditions: keratinocytes (NHK), 10 ppm, 24 hours, control = 1.0
Procedure: as §1, §2, §3

[11] = system: normal human epidermal keratinocytes (NHEKs); assay: Evaluation of cellular differentiation of keratinocytes; assay type: cell-based; conditions: various concentrations, 48 hours, FIG. 1
Procedure: In order to investigate the effect of the methylated catechin on the differentiation of keratinocytes, normal human epidermal keratinocytes (NHEKs) were treated with EGCG″3Me and EGCG at various concentrations for 48 hours.

Row | Molecule | relative expression of Fox03 mRNA [1] | relative expression of Klotho mRNA ([2]; 1 ppm) | relative expression of Klotho mRNA ([2]; 10 ppm) | relative expression of XPD mRNA [3] | relative expression of Sirt-1 mRNA [4] | relative expression of XPD mRNA [5] | relative expression of ERCC8 mRNA [6] | relative expression of ERCC8 mRNA [7] | relative expression of Klotho mRNA ([8]; 1 ppm) | relative expression of Klotho mRNA ([8]; 10 ppm) | relative expression of Sirt-1 mRNA [9] | relative expression of Fox03 mRNA [10] | differentiation of keratinocytes [11]
1 | O=C(O[C@@H]1Cc2c(O)cc(O)cc2O[C@@H]1c1cc(O)c(O)c(O)c1)c1cc(O)c(O)c(O)c1 [Green tea EGCG, epigallocatechin gallate] | 2.1 | 2.5 | 10.2 | 2.8 | 2.0 | 9.2 | 2.3 | 1.9 | 1.2 | 1.8 | 8.2 | 1.4 | –
2 | CC1=C(/C=C/C(C)=C/C=C/C(C)=C/CO)C(C)(C)CCC1 [Retinol] | 1.4 | – | 9.8 | 2.4 | 1.9 | 10.1 | 1.0 | 1.2 | – | 2.2 | 7.9 | 1.1 | –
3 | epigallocatechin-3-O-(3-O-methyl)gallate [Green tea EGCG3″Me] | 5.3 | 4.2 | 10.5 | 6.9 | 4.3 | 21.4 | 5.1 | 4.3 | 1.7 | 2.1 | 17.1 | 3.2 | promoted the differentiation of the keratinocytes in a concentration-dependent manner; also recorded: superior differentiation of the keratinocytes at low concentration as compared to EGCG
